Results reported in a melting point compilation (Tetko et al.; mined from patent text by program, amines drawn as free bases though some values may be those of a salt).

Row | Compound | melting point [°C]
1 | O=C(COc1cc(F)ccc1C(=O)NCc1cccc([N+](=O)[O-])c1)OCc1ccccc1 | 95 to 98
2 | CC(C)N1C(=O)NC(c2ccc3c(c2)CCO3)c2cc3c(cc21)OCO3 (stereo unspecified) | 183 to 185
3 | COCC1CN(c2ccc(C3CCCCC3)c([N+](=O)[O-])c2)C(=O)O1 (racemic) | 105 to 106
4 | NC1(NC(=O)C(F)(F)F)CN(c2c(F)cc3c(=O)c(C(=O)O)cn(-c4ccc(F)cc4F)c3c2F)C1 | 190 to 196
5 | COC(=O)NN=C(C)c1nc(-c2ccccc2)[nH]c1C | 201 to 202
6 | CC(C)OC(=O)Cn1c(=O)n(C)c(=O)n(-c2cc(N=c3sc(=S)n4n3CCCCC4)c(F)cc2Cl)c1=O | 108 to 118
7 | CCOC(=O)c1ccc(NCCCCc2cccs2)cc1 | 63 to 65
8 | CN(C)CC#Cc1cnc2c(c1)N(Cc1cc(Cl)ccc1Cl)CCN2 | 168
9 | Cc1ccnc2c1C(=O)CC(c1ccsc1)C2 (stereo unspecified) | 92 to 93
10 | CSC[C@H](NCc1cc(Br)ccc1N)C(=O)O | 228
11 | CCCc1csc(NS(=O)(=O)c2cccc(Cl)c2C)n1 | 169
12 | O=C1C=C(c2c[nH]c3ccc(Br)cc23)C(=O)N1 | 268
13 | CC(C)(C)c1cc(C(=O)c2ccc(N)cc2)cc(C(C)(C)C)c1O | 164 to 166
14 | COc1ccc(C(C)C)cc1-c1cc(-c2nnnn2C2CCN(C(=O)OC(C)(C)C)CC2)c(OCc2ccccc2)cc1OCc1ccccc1 | 77 to 81
15 | CN1CCC23c4c5ccc(O)c4OC2C(=NO)CCC3(O)C1C5 (stereo unspecified) | 270 to 271
16 | CCOC(=O)N1CCC2(CC1)C(=O)OC(=O)N2c1ccccc1 | 211
17 | CNC(=O)N1N=C(c2ccc(N)cc2)c2cc(Cl)ccc2CC1C (stereo unspecified) | 115 to 118
18 | COc1ccc(C(=O)Nc2c(Cl)cncc2Cl)cc1OC1CC=CC1 | 193 to 195
19 | CC(C)C(NC(=O)N(C)Cc1ccccn1)C(=O)N(C(=O)C(NC(=O)N(C)Cc1nccs1)C(C)C)C(Cc1ccccc1)C(O)CCCc1ccccc1 (stereo unspecified) | 158 to 160
20 | CC(C)c1ccc2c(c1)C=C(C(=O)O)CC2 | 160 to 162
21 | CC(C)(C)OC(=O)NCc1cccc(C=CC(=O)O)c1 | 121 to 123
22 | COC(=O)c1ccc(Cl)cc1NC(=O)CSc1ccccc1C | 88 to 89
23 | Cc1ccccc1N1CCN(CCn2c(=N)sc3cc(OC(F)(F)F)ccc32)CC1 | 135
24 | NC(=O)c1cc2c(Sc3ccc(Cl)cc3)cncc2s1 | 239 to 241

Row | Compound | melting point [°C]
25 | Cc1c(C(=O)Nc2ccc(OCC(C)C)c(C#N)c2)cnn1-c1ccc(F)cc1 | 177 to 178
26 | CC(C)c1nn(C(=O)NC(C)(C)CCc2ccccc2Cl)c(=O)n1N | 159
27 | O=C(O)CC(Sc1nc2ccccc2s1)C(=O)O (stereo unspecified) | 165 to 168
28 | CC(C)n1nc(-c2cc(C(N)=O)c(Cl)nc2-c2ccccc2)ccc1=O | 199 to 200
29 | O=C1c2ccccc2C2(O)Oc3c(ccc(Cl)c3Cl)C12O (stereo unspecified) | 142 to 150
30 | N[C@H]1C[C@H]2[C@H](C(=O)O)[C@H]2[C@]1(N)C(=O)O | > 250
31 | CC(=O)OC[C@@H]1C=C[C@H](n2cnc3c(Cl)nc(N)nc32)C1 | 124 to 127
32 | Cc1cc2cc(CN3CCCC3)cnc2cc1NC(=O)c1ccc(-c2ccc(F)cc2)c(F)c1 | 163 to 166
33 | O=P(O)(O)CCCCCCCCCCCC(F)(F)C(F)(F)C(F)(F)C(F)(F)C(F)(F)C(F)(F)C(F)(F)C(F)(F)F | 115 to 117
34 | Cn1c(=O)nc(-c2ccccc2)c2ccsc21 | 256 to 258
35 | CCCN1C(=O)CN=C(c2cccc(C(F)(F)F)c2)c2cc(OC)c(OC)cc21 | 135 to 137
36 | Cc1ccc(C)c2c1CN(NC(=O)OC(C)(C)C)C2 | 148 to 151
37 | Oc1cc(O)c2ccccc2n1 | 350 to 355
38 | COn1c(C(C)C)nc2c(N)nc3ccccc3c21 | 217 to 219
39 | CSCC1(c2onc(-c3ccc(O)cc3)c2-c2ccccc2)CC1 | 176 to 177
40 | COc1ccc(-c2nc(C(=O)OC(C)C)cc(Cl)c2Cl)cc1 | 113 to 116
41 | COc1ccc(-c2nc(CCOc3ccc(CC4OC(=O)NC4=O)cc3)c(C)o2)cc1 (stereo unspecified) | 141 to 143
42 | COC(=O)C(=O)CC(C)C1CCC2C3CC=C4CC(OC(C)=O)CCC4(C)C3CCC12C (stereo unspecified) | 146 to 147
43 | CSC1CC(=O)N1CC(=O)NCc1ccccc1 (stereo unspecified) | 84 to 87
44 | O=C1CC(c2cccc(-n3ccnc3)c2)=Nc2ccc(-c3ccc(F)cc3O)cc2N1 | 220
45 | CCCOC(=O)c1ccc(OC(=O)CCCC(=O)Oc2ccc(C(=O)OCCC)cc2)cc1 | 74 to 75
46 | CC(=O)N1CCN(c2ccc(Nc3nccc(-c4sc(-c5ccc(N6CCOCC6)cc5)nc4C)n3)cc2)CC1 | 250 to 252
47 | CC1CC(=O)c2cc([N+](=O)[O-])cnc2C1 (stereo unspecified) | 64 to 67
48 | CC(C)c1ccc(C(=O)NC/C=C/c2ccccc2)cc1 | 142

Row | Compound | melting point [°C]
49 | O=c1cc(Cl)c2cc(OC(F)(F)F)ccc2o1 | 85 to 87
50 | CCOC(=O)c1cc([N+](=O)[O-])ccc1F | 53 to 54
51 | CCCC(O)(CCC)c1ccc(Cl)c2nc3n(c12)CCCN3c1ccc(Cl)cc1C(F)(F)F | 200 to 202
52 | Cc1ccc(C(=O)c2cccc(S(=O)(=O)O)n2)cc1 | > 300
53 | Cc1cc(Nc2nccc(-c3sc(N)nc3C)n2)ccc1N1CCOCC1 | 256 to 257
54 | CCCc1cc(=O)[nH]c(NC(=N)Nc2ccccc2)n1 | 196
55 | Cn1cccc1C(=O)NCc1cccc2c1C(=O)N(C1CCC(=O)NC1=O)C2=O (stereo unspecified) | > 260
56 | Cc1cccc2c1N(Cc1c[nH]cn1)C(=O)C(NC(=O)Nc1cccc(-c3nnn[nH]3)c1)N=C2C1CCCCC1 (stereo unspecified) | 168 to 179
57 | CS(=O)(=O)c1cnc(Cl)c(CCC(=O)c2ccc(Cl)c(Cl)c2)c1 | 128 to 130
58 | O=C1C=CC2=CN=C(Cc3ccccc3)N3CCC(=C23)N1 | 226 to 228
59 | C#CCN(Cc1ccc2nc(Cl)c(N)cc2c1)c1ccc(C(=O)N[C@@H](CCC(=O)O)C(=O)O)c(F)c1 | 107 to 110
60 | O=[N+]([O-])c1cn2c(n1)OC[C@@H](OCc1ncc(Br)cn1)C2 | > 290
61 | C1=C(c2nc(-c3ccccc3)no2)CCN(Cc2c[nH]c3ncccc23)C1 | 207 to 209
62 | CC(=O)SCC(Cc1ccccc1)C(=O)NC1(C(=O)OCc2ccccc2)CCCCC1 (stereo unspecified) | 166 to 168
63 | O=C(O)c1cc(-n2c(=O)cc(C(F)(F)F)[nH]c2=O)ccc1Cl | 311 to 312
64 | COc1cc(CC(=O)NCCCc2ccc(C)c(C)c2)ccc1OCCNCCO | 76 to 79
65 | N#Cc1c(N2CCc3ccccc3CC2)nc(CCO)n(CCO)c1=O | 164
66 | O=C1NC(=O)C(=Cc2ccc(OC3CCN(C(=O)OCC4c5ccccc5-c5ccccc54)CC3)cc2)S1 | 185
67 | O=c1[nH]c(=O)c2cc3occoc3cc12 | 277 to 280
68 | CCOCc1nc2c(Cl)nc3ccccc3c2n1Cc1cc(-c2ccc(F)cc2)no1 | 189 to 190
69 | Cc1ccc(C(=O)C2=C(O)C(=O)N(c3ccc(C)nn3)C2c2ccc(C(C)C)cc2)cc1 (stereo unspecified) | 279
70 | CC(=O)NN=Cc1ccc(N2CCN(C)CC2)nc1F | 210 to 212
71 | CCCCOC(=O)[C@@H]1OC(c2ccc(C#Cc3ccc(C4O[C@@H](C(=O)OCCCC)[C@H](C(=O)OCCCC)O4)cc3)cc2)O[C@H]1C(=O)OCCCC | 54
72 | CNc1cccc(S(=O)(=O)c2ccc(N)cc2)c1 | 125 to 126

Row | Compound | melting point [°C]
73 | CC(=O)N(c1ccc(O)cc1)N1CCCCC1 | 217 to 218
74 | O=C(O)CCCc1cc2nc(Cl)ccc2n1S(=O)(=O)c1cccc(C(F)(F)F)c1 | 188
75 | Clc1ccc([C@H]2C[C@@H]3CC[C@@H]4[C@H]2C(=NOCc2ccccc2)CN34)cc1Cl | 72 to 74
76 | Cc1nc(NC(=O)Nc2ccc(N3CCN(C(=O)Nc4cc(OCCO)ccc4Cl)CC3)nc2)sc1C | 128 to 129
77 | Cc1ccc(-c2ccc3c(c2)C=C(C(=O)Nc2ccc(CN4CCN(C(c5ccccc5)c5ccccc5)CC4)cc2)CC3)cc1 | 217 to 218
78 | Nc1cc(CCC(=O)Nc2ccc(Cl)cc2Cl)ccc1O | 130 to 131
79 | COc1ccc2c(c1)S(=O)(=O)C(C(=O)Nc1ccc(Cl)c(Cl)c1)C(=O)N2C (stereo unspecified) | 230 to 233
80 | COC(=O)c1ccc(N)cc1S(=O)(=O)NC(C)(C)C | 198 to 199
81 | CCOc1cc(-c2nnc3c4ccccc4c(OCc4nc[nH]n4)nn23)no1 | 240 to 243
82 | CCOC(=O)N1CCC(Nc2nccc(Oc3ccc(NC(=O)c4cc(F)cc(N5CCOCC5)c4)c4ccccc34)n2)CC1 | 122 to 124
83 | CCCCC(CC)CN(CCC)c1ccc(C2=C(C#N)C(=C(C#N)C#N)NC2=O)cc1 (stereo unspecified) | 189
84 | CNc1cc(F)ccc1C(=O)Cc1nnnn1C | 132 to 134
85 | CCOc1ccc(-c2nc(-c3cccc(C(N)=NO)n3)cs2)cc1OCC | 218 to 220
86 | COc1ccc(C(=O)OC2C(OC)C=C(C)C(=O)CC2(C)C)cc1 (stereo unspecified) | 100 to 101
87 | COc1ccc(C2C(C#N)=C(N)Oc3c2ccc2cccnc32)cc1OC (stereo unspecified) | 118 to 120
88 | OC(CNc1ccccc1)c1cc(C(F)(F)F)nc2c(C(F)(F)F)cccc12 (stereo unspecified) | 121 to 122
89 | CN[C@@H](C)[C@@H]1CCN(c2c(F)cc3c(=O)[nH]c(=O)n(C4CC4)c3c2OC)C1 | 162 to 164
90 | N#CCCNC(=O)C1=CC(CF)(CF)Oc2ccc(C#N)cc21 | 170 to 172
91 | CCCCCCCCCCCCCCCCCCN(CCCCCCCCCCCCCCCCCC)CCCN(CC(=O)OC)CC(=O)OC | 75 to 77
92 | O=C1Cc2ccccc2-c2cc(-c3ccccc3)nn21 | 181 to 183
93 | Nc1ncnc2c1ncn2OCC(O)COCP(=O)(O)O (stereo unspecified) | 218 to 221
94 | CCCCc1ccc(-c2ccccc2)c(C(=O)O)c1 | 74 to 76
95 | O=C(O)C1CC=CCC1C(=O)N1CCc2cc(S(=O)(=O)N3CCN(c4cccc(Cl)c4)CC3)ccc21 (stereo unspecified) | 146 to 148
96 | COc1cc(N2CCN(C(=O)Cn3nc(C4=NCCN4)c4cccnc43)CC2)ccc1Cl | 133 to 135
